For one test, the target named is T1, GluR1 (Rattus norvegicus, UniProt P19490).
T1 construct: expressed in transfected cells; host or cells: Xenopus oocytes injected with in vitro transcribed pGluR1 sense RNA
The test is described as follows: Electrophysiological recording in Xenopus oocytes injected with GluR1 in vitro RNA. It counts as cell-based. The method, then:
It depends upon the fact that when foreign mRNA is injected into Xenopus oocytes, the mRNA is translated into functional protein.
Either a λZAP cDNA preparation, or a plasmid containing the cDNA to be tested, are cut downstream from the cDNA insert with a restriction enzyme. The post-restriction digest is digested with Proteinase K and then extracted with two phenol: chloroform (1:1) extractions. The resulting DNA fragments are then ethanol precipitated. The precipitated fragments are mixed with either T3 RNA polymerase (to make sense strand), or T7 RNA polymerase (to make anti-sense strand), plus rATP, rCTP, rGTP, rUTP, and RNase inhibitor. Simultaneously, the RNA transcripts are capped with a sodium diguanosine triphosphate [G(5')ppp(5')G] cap. The water used for the above procedures is treated with diethylpyrocarbonate to inactivate RNases.
The in vitro synthesized mRNA transcripts are injected into Xenopus oocytes. 50 nl of an RNA solution, 0.2-0.6 mg/ml, is injected into the stage V oocytes. The injected oocytes are incubated at 16° C. in Barth's medium for 2-7 days before they are analyzed for the presence of functional receptors.
Voltage recordings are made by penetrating the oocyte with a micro-electrode filled with 3M KCl and connected to the bridge circuit of an appropriate voltage clamp unit, e.g., the Dagan 8500 voltage clamp unit. Voltage recordings are preferably obtained with two electrodes, a voltage electrode filled with 3M KCl and a current electrode filled with 0.25 M CsCl, 0.25 M CsF and 50 mM EGTA (ethylene glycol tetraacetic acid).
Oocytes employed herein are obtained from ovarian tissue from anesthetized adult female Xenopus. The ovarian tissue is treated with collagenase, 2 mg/ml, for two hours and then the ovarian epithelium and follicular cells are dissected away.
The plasmid pGluR1 was subsequently rescued from bacteriophage λZAPII-GluR1.
3 days prior to the recording. The oocytes were voltageclamped at -70 mV,
applied by rapid superfusion, with 5 minute intervals between drugs. Peak
currents were recorded; each number represents the average of 3 recording
from 3 different oocytes, ± SEM.
(§1) The data in FIG. 3B represent the responses of oocytes to the indicated agonists measured 3 days after injection with GluR1 (2 ng) or GluR3 (2 ng) RNA or adult rat brain hippocampus poly(A)^+ RNA (~50 ng). All values are normalized to the response obtained with […] and are presented as the mean±S.E.M. with n≥3 for all measurements.

Test [1] deals with oocytes injected with poly(A)+ RNA isolated from rat forebrain. It counts as cell-based. The note with it: 2-10 days after injection.
The next test concerns GluR3. The format is cell-based, rat. As to the method: Thus, oocytes were injected with in vitro synthesized RNA transcripts derived from individual cDNA clones.
as §1

A further test addresses GluR5-2 (Rattus norvegicus, UniProt P22756). It counts as cell-based. The text has this: (§2) In vitro synthesized GluR5-1 and GluR5-2 cRNAs were individually expressed in Xenopus oocytes.
In another test the test system is GluR5-1. It counts as cell-based, rat.
Description: as §2

Test [2] relates to oocytes injected with pool of in vitro transcripts from rat forebrain cDNA library. The test is described as follows: Voltage recordings from oocytes injected with pooled in vitro transcripts of the λZAPII RTB1 cDNA library. It counts as cell-based. Conditions: 10 days after injection. As to the method: A directional cDNA library (λZAPII RTB1; complexity: 8×10^5 elements), consisting of 18 independent sublibraries of 44,000 clones each, was constructed from this poly(A)^+ RNA using the bacteriophage expression vector λZAPII. A pool of in vitro transcripts, comprised of transcripts made separately from all 18 amplified sublibraries, was injected into oocytes. […] Subsequently, pools of 44,000 clones (=the single sublibraries), 4,000, 400 and 40 clones were tested.

In a further test the target is T2, homomeric GluR6 receptor (Rattus norvegicus, UniProt P42260, I567V/Q621R/Y571C).
T2 construct: engineer a cDNA clone encoding the entire open reading frame of the GluR6 protein; expressed in transfected cells; host or cells: Xenopus oocytes injected with in vitro transcribed GluR6 RNA
The test is described as follows: Current recording in Xenopus oocytes injected with GluR6 RNA (homomeric GluR6 receptor). The format is cell-based. The note with it: for current measured at -70 mV: 10 μM kainate.

The mark [3] stands for this setting: QUIS 10 μM, AMPA 50 μM, GLU 100 μM, NMDA 30 μM plus 10 μM glycine, APB 50 μM, -70 mV, 3 days after 2 ng RNA.
[4] abbreviates: oocytes held at -100 mV, without Con A, AMPA 100 μM.

These results are taken from patent publication US5945509A, “Glutamate receptor compositions and method” (The Salk Institute for Biological Studies, priority 1995, dated 1999).

Like-named read-outs stand apart in the source and are kept apart here.

T1 sequence (P19490 19-907): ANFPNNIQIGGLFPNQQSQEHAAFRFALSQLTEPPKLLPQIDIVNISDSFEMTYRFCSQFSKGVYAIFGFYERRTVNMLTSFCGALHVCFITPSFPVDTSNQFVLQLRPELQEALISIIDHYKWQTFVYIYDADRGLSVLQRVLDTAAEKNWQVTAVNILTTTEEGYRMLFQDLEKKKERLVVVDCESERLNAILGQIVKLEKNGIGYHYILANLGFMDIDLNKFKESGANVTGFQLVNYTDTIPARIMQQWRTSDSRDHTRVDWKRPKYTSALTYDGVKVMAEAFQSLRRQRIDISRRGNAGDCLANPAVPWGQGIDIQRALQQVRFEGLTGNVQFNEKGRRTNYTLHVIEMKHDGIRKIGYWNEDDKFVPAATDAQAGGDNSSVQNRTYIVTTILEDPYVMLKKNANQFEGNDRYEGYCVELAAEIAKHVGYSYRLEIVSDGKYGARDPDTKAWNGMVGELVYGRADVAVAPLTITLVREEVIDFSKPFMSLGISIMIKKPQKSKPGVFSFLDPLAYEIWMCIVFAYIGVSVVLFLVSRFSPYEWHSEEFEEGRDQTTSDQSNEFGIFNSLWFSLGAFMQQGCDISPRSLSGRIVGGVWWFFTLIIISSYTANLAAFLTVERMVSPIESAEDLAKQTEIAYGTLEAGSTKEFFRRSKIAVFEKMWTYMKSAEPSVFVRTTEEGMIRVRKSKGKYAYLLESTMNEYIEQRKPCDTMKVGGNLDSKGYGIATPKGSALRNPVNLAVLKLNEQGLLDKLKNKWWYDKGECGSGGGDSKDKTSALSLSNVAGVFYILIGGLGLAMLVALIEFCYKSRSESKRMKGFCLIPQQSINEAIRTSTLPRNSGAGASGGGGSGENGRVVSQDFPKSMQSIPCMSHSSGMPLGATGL
GluR5-2, sequence (P22756 31-949): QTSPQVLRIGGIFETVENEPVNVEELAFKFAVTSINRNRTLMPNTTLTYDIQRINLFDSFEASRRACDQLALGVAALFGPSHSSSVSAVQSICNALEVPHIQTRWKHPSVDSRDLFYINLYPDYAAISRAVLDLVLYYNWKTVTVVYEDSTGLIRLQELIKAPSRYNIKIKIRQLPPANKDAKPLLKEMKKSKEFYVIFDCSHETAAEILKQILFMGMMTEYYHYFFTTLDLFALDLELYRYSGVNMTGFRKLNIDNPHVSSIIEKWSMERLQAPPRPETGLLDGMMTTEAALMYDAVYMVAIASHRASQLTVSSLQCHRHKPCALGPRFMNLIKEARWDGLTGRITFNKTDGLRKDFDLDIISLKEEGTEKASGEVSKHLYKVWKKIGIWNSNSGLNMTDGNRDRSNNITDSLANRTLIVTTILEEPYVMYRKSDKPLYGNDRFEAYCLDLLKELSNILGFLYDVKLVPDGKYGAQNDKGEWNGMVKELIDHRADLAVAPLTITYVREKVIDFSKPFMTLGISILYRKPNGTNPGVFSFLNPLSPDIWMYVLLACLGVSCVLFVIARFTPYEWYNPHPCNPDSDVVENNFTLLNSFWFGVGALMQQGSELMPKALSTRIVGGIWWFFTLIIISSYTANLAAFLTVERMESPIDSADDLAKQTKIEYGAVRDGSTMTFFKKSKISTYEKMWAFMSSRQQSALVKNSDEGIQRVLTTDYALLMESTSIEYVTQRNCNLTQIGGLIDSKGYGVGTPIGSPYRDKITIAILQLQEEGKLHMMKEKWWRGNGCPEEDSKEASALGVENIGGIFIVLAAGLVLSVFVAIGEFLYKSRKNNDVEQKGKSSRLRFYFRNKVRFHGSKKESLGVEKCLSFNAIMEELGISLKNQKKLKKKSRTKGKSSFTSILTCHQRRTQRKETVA
T2 sequence (P42260 with tags, fused parts or gaps I567V/Y571C/Q621R): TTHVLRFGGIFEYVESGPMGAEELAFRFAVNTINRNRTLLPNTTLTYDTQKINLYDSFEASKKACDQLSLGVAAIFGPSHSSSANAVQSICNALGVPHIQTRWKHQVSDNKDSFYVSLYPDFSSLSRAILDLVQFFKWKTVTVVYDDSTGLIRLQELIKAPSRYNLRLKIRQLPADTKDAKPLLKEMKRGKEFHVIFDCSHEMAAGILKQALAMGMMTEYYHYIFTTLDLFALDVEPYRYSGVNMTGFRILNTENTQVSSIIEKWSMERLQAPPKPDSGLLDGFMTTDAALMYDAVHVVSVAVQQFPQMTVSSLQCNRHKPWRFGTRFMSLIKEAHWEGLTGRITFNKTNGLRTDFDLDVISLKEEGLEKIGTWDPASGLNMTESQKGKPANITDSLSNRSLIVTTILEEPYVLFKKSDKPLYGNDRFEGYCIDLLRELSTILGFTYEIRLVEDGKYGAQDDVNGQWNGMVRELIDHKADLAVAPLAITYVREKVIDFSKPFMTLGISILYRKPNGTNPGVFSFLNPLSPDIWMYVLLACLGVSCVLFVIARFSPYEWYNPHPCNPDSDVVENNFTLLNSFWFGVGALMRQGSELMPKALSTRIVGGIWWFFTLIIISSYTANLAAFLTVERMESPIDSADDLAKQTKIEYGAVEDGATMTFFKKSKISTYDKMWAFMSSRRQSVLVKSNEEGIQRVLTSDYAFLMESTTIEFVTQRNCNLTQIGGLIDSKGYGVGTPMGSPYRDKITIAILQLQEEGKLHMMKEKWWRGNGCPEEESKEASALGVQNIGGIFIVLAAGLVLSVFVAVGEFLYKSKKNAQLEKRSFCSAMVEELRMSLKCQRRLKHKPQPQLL

Take `CN1CCCC1c1cccnc1` (stereo not shown) [nicotine]: the “response evoked by unrelated neurotransmitter receptor agonists” value at GluR1 is “failed to evoke responses”.
As to `NC(CCP(=O)(O)O)C(=O)O` (stereo not shown) [APB, 2-amino-4-phosphonobutyric acid], the “response of oocytes to agonist (in words)” value on GluR1 (setting [3]) and in the test with GluR3 (setting [3]) was “No detectable responses” each time. Moreover, the “response to selective agonists (in words)” value in test [1] was “gave no response”. Moreover, the “membrane depolarization elicited by agonist (in words)” value (shortened to “membrane depolarization elicited”) at GluR5-2 (KA 100 MM, AMPA 50 μM, quisqualate 10 μM, APB 100 μM, NMDA 100 μM with 10 μM glycine) was “did not elicit membrane depolarizations”; in the test on GluR5-1 (KA, AMPA 50 μM, quisqualate 10 μM, APB 100 μM, NMDA 100 μM with 10 μM glycine), “did not elicit membrane depolarizations”.
For `NCCCC(=O)O` [γ-aminobutyric acid], on GluR1 (concentrations as high as 1 mM), the “response evoked by unrelated neurotransmitter receptor agonists” value is recorded as “failed to evoke responses”.
Regarding `CN[C@H](CC(=O)O)C(=O)O` [NMDA, N-methyl-D-aspartic acid], the “response evoked by glutamate receptor agonists” value on GluR1 is given as “no responses”. Besides, the “response of oocytes to agonist (in words)” value at GluR1 and in the test on GluR3 was “No detectable responses” in each case. The “response to selective agonists (in words)” value in test [1] is on record as “elicited smooth responses with fast onsets”. Further, in test [2], the “response to agonist (in words)” value was “No responses”. Besides, the “membrane depolarization elicited” value at GluR5-2 and in the test on GluR5-1 was “did not elicit membrane depolarizations” each time. The “response of Con A treated oocytes (in words)” value at homomeric GluR6 receptor is on record as “did not respond”.
`NC(CCCP(=O)(O)O)C(=O)O` (stereo not shown) [APV, 2amino-5-phospho-novaleric acid]: the “Compound Alone (%)” value at GluR1 (% of the response evoked by 30 μM kainate immediately before drug application, compounds at 1 mM (kainate 30 μM), -70 mV, peak currents, 3 oocytes, ± SEM) is given as 3.1 ± 1.4%.
On to `C=C(C)[C@H]1CN[C@H](C(=O)O)[C@H]1CC(=O)O` [kainate, kainic acid], for which the 100% current response on GluR1 (30 μM kainate, -70 mV, depending on the oocyte) is reported as 40-200 nA. Further, the “current measured at -70 mV” value amounted to 330 nA at homomeric GluR6 receptor (Con A treated, modified Ringer solution (NaCl substituted by sodium methanesulfonate)); 2.3 μa at homomeric GluR6 receptor (Ringer solution, after Con A treatment); 30 nA at homomeric GluR6 receptor (Ringer solution, before Con A treatment). Moreover, on homomeric GluR6 receptor (after 100 μM kainate for 30 seconds), the “time for full recovery from desensitization” value is listed as “approximately 15 minutes”. The “response of Con A treated oocytes (in words)” value on homomeric GluR6 receptor (aspartate 100 μM, NMDA 100 μM with 3 μM glycine, AMPA 10-1000 μM) is “responded”. Also, the “current evoked by agonist (in words)” value on homomeric GluR6 receptor (setting [4]) is on record as “evoked inward currents that desensitized”.
Consider `O=C(O)c1cc(=O)c2ccccc2[nH]1` [Kynurenic acid], for which the “Compound Alone (%)” value at GluR1 was 3.4 ± 0.2%.
For the molecule `NCCc1c[nH]c2ccc(O)cc12` [serotonin], the “response evoked by unrelated neurotransmitter receptor agonists” value at GluR1 (concentrations as high as 1 mM) is on record as “failed to evoke responses”.
`N[C@H](CCC(=O)NCC(=O)O)C(=O)O` [γ-DGG, D-glutamylglycine]: on GluR1, the “Compound Alone (%)” value was -0.1 ± 0.5%.
Take `CCOC(=O)CC[C@H](N)C(=O)OCC` [GDEE, glutamate diethylester]: the “Compound Alone (%)” value at GluR1 is 24.8 ± 5.7%. For the same molecule, the “agonist properties (in words)” value at GluR1 (each at 1 mM) is on record as “weak agonist properties”.
Consider `NCC(=O)O` [glycine], for which, at GluR1, the “potentiation of the KA response” value was “did not potentiate” and the “response evoked by unrelated neurotransmitter receptor agonists” value is on record as “failed to evoke responses”.
Take `Cc1onc(O)c1CC(N)C(=O)O` (stereo not drawn) [AMPA, α-amino-3-hydroxy-5-methyl-isoxazole-4-propionic acid]: the “response of Con A treated oocytes (in words)” value on homomeric GluR6 receptor is on record as “did not respond”. On homomeric GluR6 receptor (AMPA 100 μM, Con A treated oocytes), the “effect of coapplication on kainate-evoked (1 μM) responses” value is listed as “no effect”. Also, the “current evoked by agonist (in words)” value at homomeric GluR6 receptor (setting [4]) is given as “did not evoke any detectable current”.
`N[C@@H](Cn1oc(=O)[nH]c1=O)C(=O)O` [quisqualate, quisqualic acid]: the “membrane depolarization elicited” value at GluR5-2 is listed as “did not elicit membrane depolarizations”. Also, the “current evoked by agonist (in words)” value on homomeric GluR6 receptor is “activated only small inward currents”. Further, the “effect on kainate-evoked current (in words)” value at homomeric GluR6 receptor (without Con A) is given as “attenuated a subsequent kainate evoked current”.
As to `N#Cc1cc2[nH]c(=O)c(=O)[nH]c2cc1[N+](=O)[O-]` [CNQX, 6-nitro-7-cyano-quinoxaline-2,3-dione], the “block of agonist-evoked responses (in words)” value at homomeric GluR6 receptor is “blocked both quisqualate and kainate-evoked responses”.
Consider `O=C(O)[C@H]1CCCN[C@H]1C(=O)O` (relative stereo) [PDA, 2,3cis-piperidine dicarboxylic acid], for which the “Compound Alone (%)” value at GluR1 is 2.5 ± 0.7%.
On the same count and under the same terms, in the case of `O=C(O)C1CN(CCCP(=O)(O)O)CCN1` (stereo not shown) [CPP, 3 (2carboxypiperazin-4-yl)propyl-1-phosphate] it was 9.1 ± 0.7%.
Take concanavalin A [Con A]: the effect on desensitization entry at homomeric GluR6 receptor (10 μM Con A for 5 minutes) is on record as “efficiently decreases desensitization”.
